Data set [1] is described as follows: Human hepatocyte intrinsic clearance assay. The class given is in vitro ADME. The settings on record: human hepatocytes. In a few lines:
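Pooled 10-donor cryopreserved human hepatocytes in suspension (0.25×10^6 cells in 0.25 mL) incubated with test compound at […], 37° C. Samples taken 0.5–120 min and quenched in acetonitrile, parent remaining measured by LC-MS/MS. CLint ([…]) derived from slope of ln % remaining vs time.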

Data set [2] in a line: Caco-2 cell monolayers intrinsic permeation assay in the presence of efflux inhibitors. The data set is classed as in vitro ADME. The settings on record: Caco-2, with efflux inhibitors. In a few lines:
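Caco-2 monolayers grown 14–18 days on Transwells; compound dosed apically in HBSS with efflux inhibitors (Zosuquidar, Benzbromarone, KO-143), inhibitors also basolateral, 37 °C with shaking. Sampled at 0, 45 and 120 min, analysed by LC/MS/MS; apical-to-basolateral Papp (cm/s) calculated.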
On the technique in general: Passage across Caco-2 layers is used to estimate intestinal permeability.

SMILES strings stand for the structures. A value given as a limit tells only on which side of the number the result lay.

For the compound `CCN(C(=O)c1cc(F)ccc1-n1cc(C(=O)C2CCN(C(=O)[C@H]3N[C@@H]4CC[C@H]3C4)CC2)c2ccncc21)C(C)C` [Example 31, 2-(3-(1-((1R,3S,4S)-2-Azabicyclo[2.2.1]heptane-3-carbonyl)piperidine-4-carbonyl)-1H-pyrrolo[2,3-c]pyridin-1-yl)-N-ethyl-5-fluoro-N-isopropylbenzamide], in data set [1], the “HH CLint” value is <1.0 μl/min/1E6. Further, the Papp A→B in data set [2] was 0.1 ×10⁻⁶ cm/s.

`CC(C)n1nccc1-c1cc(F)ccc1-n1cc(C(=O)C2CCN(C(=O)[C@H]3N[C@@H]4CC[C@H]3C4)CC2)c2ccncc21` [Example 36, (1-((1R,3S,4S)-2-Azabicyclo[2.2.1]heptane-3-carbonyl)piperidin-4-yl)(1-(4-fluoro-2-(1-isopropyl-1H-pyrazol-5-yl)phenyl)-1H-pyrrolo[2,3-c]pyridin-3-yl)methanone]: the “HH CLint” value in data set [1] is on record as <1.0 μl/min/1E6. The Papp A→B in data set [2] was 0.6 ×10⁻⁶ cm/s.

Turning to `CC(C)c1ncncc1-c1cc(F)ccc1-n1cc(C(=O)C2CCN(C(=O)[C@H]3N[C@@H]4CC[C@H]3C4)CC2)c2ccncc21` [Example 37, (1-((1R,3S,4S)-2-Azabicyclo[2.2.1]heptane-3-carbonyl)piperidin-4-yl)(1-(4-fluoro-2-(4-isopropylpyrimidin-5-yl)phenyl)-1H-pyrrolo[2,3-c]pyridin-3-yl)methanone], in data set [1], the “HH CLint” value is listed as <1.0 μl/min/1E6. For the same compound, the Papp A→B in data set [2] was determined as 1 ×10⁻⁶ cm/s.

Regarding `CC(C)c1ncccc1-c1cc(F)ccc1-n1cc(C(=O)C2CCN(C(=O)[C@H]3N[C@@H]4CC[C@H]3C4)CC2)c2ccncc21` [Example 38, (1-((1R,3S,4S)-2-Azabicyclo[2.2.1]heptane-3-carbonyl)piperidin-4-yl)(1-(4-fluoro-2-(2-isopropylpyridin-3-yl)phenyl)-1H-pyrrolo[2,3-c]pyridin-3-yl)methanone], the “HH CLint” value in data set [1] is given as <1.0 μl/min/1E6. For the same compound, the Papp A→B in data set [2] is 1.5 ×10⁻⁶ cm/s.

`O=C(c1cn(-c2ccc(F)cc2-c2cncnc2C2CC2)c2cnccc12)C1CCN(C(=O)[C@H]2N[C@@H]3CC[C@H]2C3)CC1` [Example 40, (1-((1R,3S,4S)-2-Azabicyclo[2.2.1]heptane-3-carbonyl)piperidin-4-yl)(1-(2-(4-cyclopropylpyrimidin-5-yl)-4-fluorophenyl)-1H-pyrrolo[2,3-c]pyridin-3-yl)methanone]: in data set [1], the “HH CLint” value was <1.0 μl/min/1E6. Moreover, the Papp A→B in data set [2] was 0.3 ×10⁻⁶ cm/s.

Take `CC(C)c1ccncc1-c1cc(F)ccc1-n1cc(C(=O)C2CCN(C(=O)[C@H]3N[C@@H]4CC[C@H]3C4)CC2)c2ccncc21` [Example 41, (1-((1R,3S,4S)-2-Azabicyclo[2.2.1]heptane-3-carbonyl)piperidin-4-yl)(1-(4-fluoro-2-(4-isopropylpyridin-3-yl)phenyl)-1H-pyrrolo[2,3-c]pyridin-3-yl)methanone]: the “HH CLint” value in data set [1] is given as 1.7 μl/min/1E6. For the same compound, the Papp A→B in data set [2] is 0.5 ×10⁻⁶ cm/s.

As to `CC(C)c1ncsc1-c1cc(F)ccc1-n1cc(C(=O)C2CCN(C(=O)[C@H]3N[C@@H]4CC[C@H]3C4)CC2)c2ccncc21.O=CO` [Example 42, (1-((1R,3S,4S)-2-Azabicyclo[2.2.1]heptane-3-carbonyl)piperidin-4-yl)(1-(4-fluoro-2-(4-isopropylthiazol-5-yl)phenyl)-1H-pyrrolo[2,3-c]pyridin-3-yl)methanone 1·formic acid], the “HH CLint” value in data set [1] amounted to 2.5 μl/min/1E6. The Papp A→B in data set [2] was 1.3 ×10⁻⁶ cm/s.

`CCN(C(=O)c1cc(F)ccc1-n1c(C)c(C(=O)C2CCN(C(=O)[C@H]3N[C@@H]4CC[C@H]3C4)CC2)c2ccncc21)C(C)C` [Example 46, 2-(3-(1-((1R,3S,4S)-2-Azabicyclo[2.2.1]heptane-3-carbonyl)piperidine-4-carbonyl)-2-methyl-1H-pyrrolo[2,3-c]pyridin-1-yl)-N-ethyl-5-fluoro-N-isopropylbenzamide]: the “HH CLint” value in data set [1] is given as <1.0 μl/min/1E6. The Papp A→B in data set [2] was found to be 0.3 ×10⁻⁶ cm/s.

As to `CCN(C(=O)c1cc(F)ccc1-n1c(C)c(C(=O)C2CCN(C(=O)[C@H]3NC[C@@H]4C[C@@H]43)CC2)c2ccncc21)C(C)C` [Example 47, 2-(3-(1-((1S,2S,5R)-3-Azabicyclo[3.1.0]hexane-2-carbonyl)piperidine-4-carbonyl)-2-methyl-1H-pyrrolo[2,3-c]pyridin-1-yl)-N-ethyl-5-fluoro-N-isopropylbenzamide], the “HH CLint” value in data set [1] is recorded as 2.1 μl/min/1E6. For the same compound, the Papp A→B in data set [2] was determined as 1.9 ×10⁻⁶ cm/s.

On to `Cc1c(C(=O)C2CCN(C(=O)[C@H]3NC[C@@H]4C[C@@H]43)CC2)c2ccncc2n1-c1ccc(F)cc1-c1cnccc1C(C)C` [Example 54, (1-((1S,2S,5R)-3-Azabicyclo[3.1.0]hexane-2-carbonyl)piperidin-4-yl)(1-(4-fluoro-2-(4-isopropylpyridin-3-yl)phenyl)-2-methyl-1H-pyrrolo[2,3-c]pyridin-3-yl)methanone], for which the “HH CLint” value in data set [1] was 6.4 μl/min/1E6. Also, the Papp A→B in data set [2] turned out to be 4 ×10⁻⁶ cm/s.

One may read the Papp A→B as how fast a substance crosses the layer from the apical side.

The values are drawn from patent publication US20240335431A1, “1-H-PYRROLO[2,3-c]PYRIDINE COMPOUNDS” (Acerta Pharma B.V., priority 2023, published 2024).
